Source: patent publication US20260285903A1, “SYNTHESIZED BIOLOGICALLY ACTIVE COMPOUNDS AND METHODS OF MAKING AND USING” (Georgia State University Research Foundation, Inc., priority 2023, published 2026)
Converted amounts (≈) assume the structure as drawn. Read-outs that look alike come from different tables or passages of the source.

How the values were obtained:
[1] = system: human normal colon fibroblast cells (CCD-18Co); details: cited from earlier work
RIPK4 = RIPK4 (Homo sapiens, UniProt P57078); assay: Radiometric 33P kinase assay, 376 Wild Type Kinase Panel; type: biochemical; details: 20 μM M13, 10 μM ATP; read-out: inhibition of enzyme activity relative to control
RIPK4, sequence (P57078 whole entry): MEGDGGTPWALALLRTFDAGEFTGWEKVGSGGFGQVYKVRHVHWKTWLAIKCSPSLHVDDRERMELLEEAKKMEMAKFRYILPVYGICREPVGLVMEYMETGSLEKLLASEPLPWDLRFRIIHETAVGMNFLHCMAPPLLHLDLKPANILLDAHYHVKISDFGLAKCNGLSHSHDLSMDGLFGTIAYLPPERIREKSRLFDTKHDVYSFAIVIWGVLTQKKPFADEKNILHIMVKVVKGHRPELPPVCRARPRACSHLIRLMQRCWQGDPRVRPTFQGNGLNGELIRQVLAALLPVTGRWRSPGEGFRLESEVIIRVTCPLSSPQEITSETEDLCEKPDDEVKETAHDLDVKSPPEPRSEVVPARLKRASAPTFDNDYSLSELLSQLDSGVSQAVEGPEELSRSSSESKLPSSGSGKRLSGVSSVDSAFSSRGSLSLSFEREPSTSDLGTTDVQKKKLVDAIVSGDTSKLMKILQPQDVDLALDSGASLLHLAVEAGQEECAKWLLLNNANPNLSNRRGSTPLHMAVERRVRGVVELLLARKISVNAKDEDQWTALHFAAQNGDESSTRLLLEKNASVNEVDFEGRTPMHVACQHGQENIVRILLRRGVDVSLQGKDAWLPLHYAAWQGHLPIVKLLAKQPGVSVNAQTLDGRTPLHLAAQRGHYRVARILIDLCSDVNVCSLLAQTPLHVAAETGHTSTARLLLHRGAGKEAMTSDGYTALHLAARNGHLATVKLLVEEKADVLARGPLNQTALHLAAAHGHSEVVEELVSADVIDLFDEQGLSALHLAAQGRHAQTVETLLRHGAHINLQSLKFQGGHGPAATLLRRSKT
Text: (§1) It was hypothesized that M13 may target kinases to reduce the inflammatory response. Determination and improvement of the selectivity of a compound by screening a large part of the kinome are of pivotal importance in the discovery of M13 signaling pathways for its anti-inflammatory activities. Radiometric assays were used based on the transfer of ^33P-labeled phosphate from ATP to the kinase substrates found in the 376 Wild Type Kinase Panel and 17 Lipid Kinase Panel (Reaction Biology) and a broad kinase selectivity screen for the inhibitory activity of M13 was performed. Briefly, radiometric assays are based on the transfer of 10 μM ^33P-labelled phosphate from ATP to the kinase substrate. […] FIGS. 2A and 2B show the targeted inhibitor effects of M13 on lipid kinases (FIG. 2A) and protein kinases (FIG. 2B).

TRKB = TRKB (Homo sapiens, UniProt Q16620); assay: as above; type: biochemical; details: 20 μM M13, 10 μM ATP; read-out: inhibition of enzyme activity relative to control
TRKB, sequence (Q16620 32-822): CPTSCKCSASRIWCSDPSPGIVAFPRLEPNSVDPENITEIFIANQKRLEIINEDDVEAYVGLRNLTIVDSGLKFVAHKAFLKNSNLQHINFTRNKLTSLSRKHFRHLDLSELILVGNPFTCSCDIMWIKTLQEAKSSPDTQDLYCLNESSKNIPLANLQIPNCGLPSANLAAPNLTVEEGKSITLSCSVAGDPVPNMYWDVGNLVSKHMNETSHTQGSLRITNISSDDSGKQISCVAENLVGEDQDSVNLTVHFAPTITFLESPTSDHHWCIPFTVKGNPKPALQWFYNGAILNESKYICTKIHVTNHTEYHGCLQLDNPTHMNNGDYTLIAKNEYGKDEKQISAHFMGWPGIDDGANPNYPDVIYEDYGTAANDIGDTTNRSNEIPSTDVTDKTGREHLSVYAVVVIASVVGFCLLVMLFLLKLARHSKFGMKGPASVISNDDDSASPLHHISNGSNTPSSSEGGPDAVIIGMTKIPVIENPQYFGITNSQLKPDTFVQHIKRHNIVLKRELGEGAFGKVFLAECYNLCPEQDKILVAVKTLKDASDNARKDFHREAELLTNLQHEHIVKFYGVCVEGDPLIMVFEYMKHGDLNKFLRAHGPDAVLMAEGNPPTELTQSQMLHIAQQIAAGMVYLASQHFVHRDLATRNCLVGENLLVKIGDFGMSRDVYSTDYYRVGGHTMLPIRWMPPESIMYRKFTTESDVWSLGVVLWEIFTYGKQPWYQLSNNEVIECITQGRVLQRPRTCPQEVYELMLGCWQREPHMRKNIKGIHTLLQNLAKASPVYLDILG
Text: as §1

CDK6 = CDK6 (Homo sapiens, UniProt Q00534); assay: as above; type: biochemical; details: 20 μM M13, 10 μM ATP; read-out: inhibition of enzyme activity relative to control
CDK6, sequence (Q00534 whole entry): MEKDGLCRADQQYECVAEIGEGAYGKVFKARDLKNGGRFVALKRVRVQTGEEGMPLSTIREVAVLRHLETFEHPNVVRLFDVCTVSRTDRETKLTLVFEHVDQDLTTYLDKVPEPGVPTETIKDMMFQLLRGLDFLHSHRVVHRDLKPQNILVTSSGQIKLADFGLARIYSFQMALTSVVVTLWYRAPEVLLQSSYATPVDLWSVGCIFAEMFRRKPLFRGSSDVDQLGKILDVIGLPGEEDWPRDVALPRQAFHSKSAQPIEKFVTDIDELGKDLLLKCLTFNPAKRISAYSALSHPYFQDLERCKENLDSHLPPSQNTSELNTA
Text: as §1

25 selected targets = assay: In vitro evaluation of safety and toxicity (InVEST) screening
Experimental: Safety screening of M13 was performed using an in vitro evaluation of safety and toxicity (InVEST). The effects of M13 was tested against 25 selected targets, including factors known to be involved in toxicity in humans.

[2] = system: lung cancer cells (H-1299); details: cited from earlier work
HIEC-6 cells = assay: MTT viability assay, 2D culture; type: cell-based; details: Homo sapiens
Experimental: PBMCs were provided by STEMCELL Technologies (STEMCELL Canada Inc.) and maintained in ImmunoCult™-XF T-cell Expansion Medium (Cat #10981). HIEC-6 cells were maintained in OptiMEM 1 Reduced Serum Medium supplemented with 20 mM HEPES, 10 mM GlutaMAX, 10 ng/mL Epidermal Growth Factor, 4% (v/v) fetal bovine serum (FBS), and 1% penicillin-streptomycin (PS). HCT-116 cells were maintained in ATCC-formulated McCoy's 5a medium, supplemented with 10% (v/v) FBS and 1% PS. Caco-2/BBe cells were grown in DMEM supplemented with 10% (v/v) FBS and 1% PS (v/v). Human colon cancer stem cells (HC-CSC) were maintained in complete growth media with serum and antibiotics (Cat #M36112-39S) from Celprogen Inc. (Torrance, CA, USA).
The […] (MTT) assay was used to study the effects of M13 on the viability of four 2D-cultured human intestinal cell lines (HIEC-6, HCT-116, Caco-2/BBe, and HC-CSC).

[3] = Incubation with mouse intestinal microsomes (HPLC); type: in vitro ADME; details: mouse, intestinal microsomes; incubation for 30 minutes; read-out: relative content retained of the input
Text: (§2) The biopharmaceutical properties of the synthesized M13 (5-glutathione-6-shogaol) were characterized.

[4] = Thermodynamic (equilibrium) solubility; type: physicochemical; details: read-out: thermodynamic (or equilibrium) solubility
Text: (§3) The main reason for failure in drug development is poor biopharmaceutical properties, which include low aqueous solubility, chemical instability.
as §2

[5] = Partition between octanol and aqueous buffer (Log D7.4); type: physicochemical; details: pH 7.4
Text: as §3, §2

[6] = pKa by UV metric at pH 2 to pH 12; type: physicochemical
Text: The pKa of a drug influences lipophilicity, solubility, protein binding, and permeability, which in turn directly affects pharmacokinetic (PK) characteristics such as absorption, distribution, metabolism, and excretion.
as §2

Kinetic solubility = type: physicochemical
Text: as §3, §2

[7] = Chemical stability at various pH / in acidic PBS (HPLC); type: physicochemical
Text: as §3, §2

[8] = system: cell cycle control/phosphorylation proteins; assay: Cell Cycle Control Phospho Antibody Array on Caco-2/BBe cell lysates; type: cell-based, human; details: 24 hours
Experimental: The mechanism by which M13 exerts its anti-cancer effects was explored. Cell lysates of Caco-2/BBe cells incubated for 24 hours with free M13, NL, or M13-NL were hybridized on cancer-related protein array membranes (Proteome Profiler™ Human XL Oncology Array), and cell cycle control/phosphorylation profiling protein antibody microarray slides (Cell Cycle Control Phospho Antibody Array).

[9] = system: AOM/DSS-induced colon tumors; assay: AOM/DSS-induced CAC mouse model, oral gavage; type: in vivo, C57BL/6J mice; details: 5 mg/kg oral, vs AOM/DSS group
Experimental: Female C57BL/6J mice (Strain #:000664, The Jackson Laboratory, Bar Harbor, ME), female interleukin-10 knock-out (IL10^−/− mice, B6.129P2-IL10 tmlCgn, The Jackson Laboratory), and female CD-1 mice (CD-1@IGS Mouse, outbred, Charles River) were housed in a clean facility maintained at 22±2° C. and 30-70% relative humidity with a 12-h light/dark cycle. The diet (ABDIET@PICOLAB®, PMI Nutrition International LLC, Arden Hills, MN, USA) and water were provided ad libitum. Mice experiments were performed following ARRIVE guidelines 2.0, with approval from the Georgia State University Institutional Animal Care and Use Committee (IACUC, Protocol #A20039).
An AOM/DSS-induced CAC mouse model (C57BL/6J) was used to test the anti-cancer effects of free M13, NL, and M13-NL. […] Healthy mice were used as the control group (WT group).
Histological assessments of the colon tissues from AOM/DSS-induced CAC mice were performed. […] Immunofluorescence (IF) staining of apoptotic cells (TUNEL) and immunohistochemical (IHC) staining of Ki-67 were used to investigate the pro-apoptotic and anti-proliferative effects of M13-NL in vivo.

## CCCCCC(CC(=O)CCc1ccc(O)c(OC)c1)SCC(NC(=O)CCC(N)C(=O)O)C(=O)NCC(=O)O (centres unmarked) [M13, 5-glutathione-6-shogaol]
[1]
  toxicity: low toxicity
RIPK4
  inhibition at 20 µM: 30 to 45%
TRKB
  inhibition at 20 µM: 30 to 45%
CDK6
  inhibition at 20 µM: 30 to 45%
25 selected targets
  effect on the activities of 25 assorted targets from five target classes: did not have any significant effect
  inhibition of GPCR targets, ion channel (5-HT3), phosphodiesterase, protease thrombin alpha: did not inhibit
  modulation of the activity of the nuclear receptor AHR: did not significantly modulate
[2]
  bioactivity: exhibited bioactivity
HIEC-6 cells; HIEC-6
  IC50: > 100 µM
HIEC-6 cells; HIEC-6, 24 h
  IC50: > 100 µM
[3]
  remaining at 0.5 h: 86%
[4]; Example 1
  solubility thermodynamic: 1390 µM (≈ 812 µg/mL)
[4]; as printed in Example 6
  solubility thermodynamic: 1390 µM (≈ 811 µg/mL)
[5]
  logD: -1.75
[6]; read-out: pKa1
  pKa: 3.24
[6]; read-out: pKa2
  pKa: 9.12
[6]; read-out: pKa3
  pKa: 10.4
Kinetic solubility; Example 1
  solubility kinetic: > 200 µM
Kinetic solubility; as printed in Example 6
  solubility kinetic: > 200 µM
[7]; 37° C., 2 h, acidic PBS (pH=5.0 or 3.0)
  relative content of M13 before and after incubation (HPLC): consistent before and after incubation
[7]; pH 2 to pH 10
  stability at various pH levels: very stable
[8]
  CDC25A and phosphorylated CDC25A (p-CDC25A) vs control and NL groups: down-regulated
[9]
  number of tumors: failed to reduce the number of tumors
